Test results from publication PMC5119973 (Cancer Medicine, 2016).
Values joined by “and” are separate entries in the source; they are usually repeats but may differ in a detail not shown here. Equal values may be shown once.

Tests used:
HT‐29 = HT‐29 colon cancer xenograft in NMRI nu/nu mice; assay type: in vivo, mouse; settings: end of study day 39
Protocol: (§1) Mouse experiments were approved by the relevant regulatory agency of the federal state of Berlin (Landesamt für Gesundheit und Soziales Berlin, approval number G0221/03). Mice were maintained in individually ventilated cages in groups of four mice per cage. They received autoclaved food and bedding (Ssniff, Soest, Germany) and acidified (pH 4.0) tap water ad libitum. The animal facility was equipped with an automatic 12 h light/dark regulation, temperature regulation at 22 ± 2°C, and relative humidity of 50 ± 10%. Female NMRI nu/nu mice (purchased from Charles River, Sulzfeld, Germany) were inoculated with 1 × 10^7 MDA‐MB‐231 or HT‐29 cells, which were allowed to grow subcutaneously to a palpable size of approximately 60–100 mm^3. […] All administrations were performed in the morning, without anesthesia. Tumor volume was determined twice per week using caliper measurements, and the volume was calculated using the formula (D × d^2)/2, with d defined as the minor axis and D as the major axis of the measurement. Tumor growth inhibition was calculated as relative tumor volume in relation to the first treatment day.
(§2) Changes in tumor volume were statistically evaluated by two‐way repeated‐measures analysis of variance, followed by Bonferroni correction, using GraphPad Prism 5 (San Diego, CA), and P < 0.05 was regarded as significant. Additionally, body weight of all mice was determined twice weekly, and the health status of the animals, including behavioral changes, was recorded daily.

MDA‐MB‐231 = MDA‐MB‐231 breast cancer xenograft in NMRI nu/nu mice; assay type: in vivo, mouse; settings: for Tumor growth inhibition (%): MDA-MB-231, end of study day 40; for Tumor growth versus vehicle control: MDA‐MB‐231 model, P < 0.05 for all groups
Protocol: as §1, §2

HIPK4 = biological target: T1, HIPK4 (Homo sapiens, UniProt Q8NE63); assay: KINOMEscan active-site competitive binding assay; settings: slash = two separate measurements
T1 construct: purchased DiscoveRx (KINOMEscan service)
T1 sequence (Q8NE63 1-616): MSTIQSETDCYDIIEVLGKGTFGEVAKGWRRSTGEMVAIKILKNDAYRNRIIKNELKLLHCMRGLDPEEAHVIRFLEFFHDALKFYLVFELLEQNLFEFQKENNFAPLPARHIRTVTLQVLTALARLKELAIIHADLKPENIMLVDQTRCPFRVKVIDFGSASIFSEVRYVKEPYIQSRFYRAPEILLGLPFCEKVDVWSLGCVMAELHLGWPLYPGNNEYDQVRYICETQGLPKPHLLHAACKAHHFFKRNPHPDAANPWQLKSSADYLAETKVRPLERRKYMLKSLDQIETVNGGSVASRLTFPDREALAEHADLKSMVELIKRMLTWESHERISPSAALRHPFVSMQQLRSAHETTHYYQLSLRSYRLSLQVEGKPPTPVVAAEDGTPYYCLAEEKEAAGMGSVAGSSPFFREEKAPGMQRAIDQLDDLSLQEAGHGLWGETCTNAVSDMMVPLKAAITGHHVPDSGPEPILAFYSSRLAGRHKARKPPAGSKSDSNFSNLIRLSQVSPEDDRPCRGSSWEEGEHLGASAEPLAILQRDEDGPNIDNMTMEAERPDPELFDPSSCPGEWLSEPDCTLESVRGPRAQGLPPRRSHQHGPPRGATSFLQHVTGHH

DDR2 = biological target: T2, DDR2 (Homo sapiens, UniProt Q16832); assay: KINOMEscan active-site competitive binding assay; settings: slash = two separate measurements
T2 construct: purchased DiscoveRx (KINOMEscan service)
T2 sequence (Q16832 22-855): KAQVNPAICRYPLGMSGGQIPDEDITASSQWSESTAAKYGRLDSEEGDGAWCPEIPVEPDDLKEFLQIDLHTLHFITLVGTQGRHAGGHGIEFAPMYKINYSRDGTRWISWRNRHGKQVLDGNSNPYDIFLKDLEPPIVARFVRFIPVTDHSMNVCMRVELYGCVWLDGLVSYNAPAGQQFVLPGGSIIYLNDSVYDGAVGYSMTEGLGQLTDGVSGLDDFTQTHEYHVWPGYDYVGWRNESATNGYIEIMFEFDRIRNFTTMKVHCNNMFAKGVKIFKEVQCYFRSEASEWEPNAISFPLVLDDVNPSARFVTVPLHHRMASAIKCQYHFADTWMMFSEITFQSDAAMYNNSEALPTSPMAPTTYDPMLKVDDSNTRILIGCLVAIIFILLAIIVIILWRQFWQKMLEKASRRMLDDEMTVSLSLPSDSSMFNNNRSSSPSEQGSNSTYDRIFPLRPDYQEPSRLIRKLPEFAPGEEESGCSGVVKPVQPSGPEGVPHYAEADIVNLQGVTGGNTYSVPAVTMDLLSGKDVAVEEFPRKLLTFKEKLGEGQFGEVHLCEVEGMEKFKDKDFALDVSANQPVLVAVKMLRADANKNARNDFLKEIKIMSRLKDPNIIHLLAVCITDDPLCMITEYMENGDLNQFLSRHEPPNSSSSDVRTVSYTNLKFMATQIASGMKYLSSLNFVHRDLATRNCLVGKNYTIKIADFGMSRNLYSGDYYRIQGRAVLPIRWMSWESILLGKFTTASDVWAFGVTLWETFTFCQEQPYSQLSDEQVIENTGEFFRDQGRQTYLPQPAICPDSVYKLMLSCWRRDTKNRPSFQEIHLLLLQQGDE

p38-beta = biological target: T3, p38-beta (Homo sapiens, UniProt Q15759); assay: KINOMEscan active-site competitive binding assay; settings: slash = two separate measurements
T3 construct: purchased DiscoveRx (KINOMEscan service)
T3 sequence (Q15759 whole entry): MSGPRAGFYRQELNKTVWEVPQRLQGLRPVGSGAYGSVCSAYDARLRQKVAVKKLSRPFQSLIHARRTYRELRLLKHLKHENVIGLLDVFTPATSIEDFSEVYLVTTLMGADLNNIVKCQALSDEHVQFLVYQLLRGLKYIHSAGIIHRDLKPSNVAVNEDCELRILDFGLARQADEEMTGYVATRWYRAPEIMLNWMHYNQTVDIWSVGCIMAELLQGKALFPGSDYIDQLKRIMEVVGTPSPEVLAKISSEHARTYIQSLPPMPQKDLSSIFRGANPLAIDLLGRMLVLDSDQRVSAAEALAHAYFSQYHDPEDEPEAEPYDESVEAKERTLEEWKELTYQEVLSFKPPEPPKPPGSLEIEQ

CDK8 = biological target: T4, CDK8 (Homo sapiens, UniProt P49336); assay: KINOMEscan active-site competitive binding assay; settings: slash = two separate measurements
T4 construct: purchased DiscoveRx (KINOMEscan service)
T4 sequence (P49336 whole entry): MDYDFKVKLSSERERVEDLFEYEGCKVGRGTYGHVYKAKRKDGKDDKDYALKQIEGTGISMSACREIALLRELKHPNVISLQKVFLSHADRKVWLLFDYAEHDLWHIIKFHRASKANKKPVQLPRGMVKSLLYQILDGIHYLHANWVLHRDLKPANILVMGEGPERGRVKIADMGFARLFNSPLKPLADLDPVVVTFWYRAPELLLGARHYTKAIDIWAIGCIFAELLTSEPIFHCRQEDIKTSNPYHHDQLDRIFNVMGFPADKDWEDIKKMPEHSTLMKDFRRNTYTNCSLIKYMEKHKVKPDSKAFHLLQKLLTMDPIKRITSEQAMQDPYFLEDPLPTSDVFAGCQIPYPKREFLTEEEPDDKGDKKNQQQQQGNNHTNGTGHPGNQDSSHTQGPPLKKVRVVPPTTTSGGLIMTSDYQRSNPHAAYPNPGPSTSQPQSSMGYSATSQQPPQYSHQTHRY

SMILES | Tumor growth inhibition (%) (HT‐29; 3 mg/kg/day oral for 27 days) | Tumor growth inhibition (%) (HT‐29; 10 mg/kg/day oral for 27 days) | Tumor growth inhibition (%) (MDA‐MB‐231; 3 mg/kg/day oral for 27 days) | Tumor growth inhibition (%) (MDA‐MB‐231; 10 mg/kg/day oral for 27 days) | Tumor growth versus vehicle control (MDA‐MB‐231) | Kd (HIPK4) | Kd (DDR2) | Kd (p38-beta) | Kd (CDK8)
CNC(=O)c1cc(Oc2ccc(NC(=O)Nc3ccc(Cl)c(C(F)(F)F)c3)c(F)c2)cc[n+]1[O-] [M‐2] | 35 | 59 | 49 | 70 | significantly inhibited tumor growth | 15 nM | 5.3 nM | 8.7 nM | 43 nM
NC(=O)c1cc(Oc2ccc(NC(=O)Nc3ccc(Cl)c(C(F)(F)F)c3)c(F)c2)cc[n+]1[O-] [M‐5] | 13 | 66 | 60 | 59 | significantly inhibited tumor growth | 26 nM | 2.5 nM | 25 nM | 140 nM
CNC(=O)c1cc(Oc2ccc(NC(=O)Nc3ccc(Cl)c(C(F)(F)F)c3)c(F)c2)ccn1 [Regorafenib, reference compound] | 34 | 67 | 44 | 72 | significantly inhibited tumor growth | 6.9 nM and 4.5 nM | 9.2 nM and 9.7 nM | 44 nM and 28 nM | 100 nM and 73 nM
